# Measurements from ChEMBL document CHEMBL1130500 (Bioorg Med Chem Lett, 1997).
# Target: T1, Gastrin/cholecystokinin type B receptor (Mus musculus) (UniProt P56481)
# T1 sequence (whole entry): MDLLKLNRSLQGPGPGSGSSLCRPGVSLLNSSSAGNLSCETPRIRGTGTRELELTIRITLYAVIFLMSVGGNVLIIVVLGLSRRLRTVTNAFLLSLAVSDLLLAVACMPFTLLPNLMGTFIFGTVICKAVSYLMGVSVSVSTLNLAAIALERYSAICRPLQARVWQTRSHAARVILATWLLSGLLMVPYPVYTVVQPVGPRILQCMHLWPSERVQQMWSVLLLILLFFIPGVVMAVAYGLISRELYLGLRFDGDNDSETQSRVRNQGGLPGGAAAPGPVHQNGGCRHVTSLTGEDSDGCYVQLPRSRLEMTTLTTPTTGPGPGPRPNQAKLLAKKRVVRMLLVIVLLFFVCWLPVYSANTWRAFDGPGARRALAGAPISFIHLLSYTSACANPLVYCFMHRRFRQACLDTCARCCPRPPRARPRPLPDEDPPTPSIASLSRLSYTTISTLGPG
# Type: tissue-based
# Conditions: Cerebral cortex; 1 uM
row,inhibition,Compound
1,3%,CC(CCCN)(NC(=O)OC1C2CC3CC(C2)CC1C3)C(=O)NCCc1ccccc1 (centres undefined)
2,8%,CC(CCCN1C(=O)c2ccccc2C1=O)(NC(=O)OC1C2CC3CC(C2)CC1C3)C(=O)NCCc1ccccc1 (centres undefined)

# Target: T2, Cholecystokinin receptor type A (Rattus norvegicus) (UniProt P30551)
# T2 sequence (whole entry): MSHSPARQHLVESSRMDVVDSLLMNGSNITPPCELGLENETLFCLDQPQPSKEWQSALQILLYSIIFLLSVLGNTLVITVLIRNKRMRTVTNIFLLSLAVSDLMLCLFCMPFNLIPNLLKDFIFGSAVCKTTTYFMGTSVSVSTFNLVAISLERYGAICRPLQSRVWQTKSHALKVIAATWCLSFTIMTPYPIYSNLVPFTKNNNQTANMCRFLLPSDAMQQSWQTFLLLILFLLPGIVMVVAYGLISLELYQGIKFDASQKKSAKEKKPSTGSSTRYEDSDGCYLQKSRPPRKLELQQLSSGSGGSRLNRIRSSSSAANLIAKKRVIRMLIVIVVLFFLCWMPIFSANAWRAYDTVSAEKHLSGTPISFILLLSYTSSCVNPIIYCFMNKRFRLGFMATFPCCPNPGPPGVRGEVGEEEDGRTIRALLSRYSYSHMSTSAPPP
# Conditions: 1 uM
row,inhibition,Compound
1,43%,COc1ccc(CC(C)(NC(=O)OC2C3CC4CC(C3)CC2C4)C(=O)N[C@H](CO)[C@H](O)c2ccccc2)cc1 (some centres undefined)

# Target: T2, Cholecystokinin receptor type A (Rattus norvegicus)
# Conditions: 10 uM
row,inhibition,Compound
1,22%,O=C(NC1(C(=O)NCCc2ccccc2)Cc2ccccc2C1)OC1C2CC3CC(C2)CC1C3 (centres undefined)
2,20%,Cc1noc(C)c1-c1nc(CC(C)(NC(=O)OC2C3CC4CC(C3)CC2C4)C(=O)NCCc2ccccc2)no1 (centres undefined)

# Target: T3, Cholecystokinin receptor type A (Rattus norvegicus, UniProt P30551)
# T3 sequence (P30551 whole entry): T2 sequence (whole entry)
# Conditions: not given
row,IC50,Compound
1,583 nM,O=C(CCC(=O)OCc1ccccc1)N[C@@H](CNC(=O)C(Cc1c[nH]c2ccc(F)cc12)NC(=O)OC1C2CC3CC(C2)CC1C3)c1ccccc1 (some centres undefined)
2,2650 nM,CC(Cc1c[nH]c2ccc(F)cc12)(NC(=O)OC1C2CC3CC(C2)CC1C3)C(=O)NC[C@H](NC(=O)CCC(=O)OCc1ccccc1)c1ccccc1 (some centres undefined)
3,65 nM,CN(C)C(=O)c1oc2ccccc2c1CC(C)(NC(=O)OC1C2CC3CC(C2)CC1C3)C(=O)NCCc1ccccc1 (centres undefined)
4,1910 nM,O=C(O)CCC(=O)N[C@@H](CNC(=O)C(Cc1c[nH]c2ccc(F)cc12)NC(=O)OC1C2CC3CC(C2)CC1C3)c1ccccc1 (some centres undefined)
5,2180 nM,CC(Cc1c[nH]c2ccc(F)cc12)(NC(=O)OC1C2CC3CC(C2)CC1C3)C(=O)NC[C@H](NC(=O)CCC(=O)O)c1ccccc1 (some centres undefined)
6,681 nM,C[C@@](Cc1c[nH]c2ccccc12)(NC(=O)OC1C2CC3CC(C2)CC1C3)C(=O)N[C@H](CO)[C@H](O)c1ccccc1 (some centres undefined)
7,6940 nM,Cc1noc(C)c1CC(C)(NC(=O)OC1C2CC3CC(C2)CC1C3)C(=O)NCCc1ccccc1 (centres undefined)
8,7220 nM,O=C(NC1(C(=O)NCCc2ccccc2)CC2(Cc3cccc4cccc(c34)C2)C1)OC1C2CC3CC(C2)CC1C3 (centres undefined)
9,2860 nM,C[C@](Cc1c[nH]c2ccc(F)cc12)(NC(=O)OC1C2CC3CC(C2)CC1C3)C(=O)NC[C@H](NC(=O)CCC(=O)O)c1ccccc1 (some centres undefined)
10,1350 nM,O=C(O)CCC(=O)N[C@@H](CNC(=O)C1(NC(=O)OC2C3CC4CC(C3)CC2C4)Cc2ccccc2C1)c1ccccc1 (some centres undefined)
11,5350 nM,CC(=O)Nc1nc(CC(C)(NC(=O)OC2C3CC4CC(C3)CC2C4)C(=O)NCCc2ccccc2)cs1 (centres undefined)
12,19800 nM,CC(Cc1ccc2c(c1)C(C)(C)CCC2(C)C)(NC(=O)OC1C2CC3CC(C2)CC1C3)C(=O)NCCc1ccccc1 (centres undefined)
13,616 nM,CC(Cc1ccc(Oc2ccccc2)cc1)(NC(=O)OC1C2CC3CC(C2)CC1C3)C(=O)N[C@H](CO)[C@H](O)c1ccccc1 (some centres undefined)

# Target: T1, Gastrin/cholecystokinin type B receptor (Mus musculus)
# Type: tissue-based
# Conditions: Cerebral cortex; 10 uM
row,inhibition,Compound
1,28%,Cc1noc(C)c1-c1nc(CC(C)(NC(=O)OC2C3CC4CC(C3)CC2C4)C(=O)NCCc2ccccc2)no1 (centres undefined)
